Experimental data taken from patent US20230346772A1, “COMBINATION TREATMENTS FOR WALDENSTROM'S MACROGLOBULINEMIA” (X4 Pharmaceuticals, Inc., priority 2019, published 2023).
Like-named read-outs stand apart in the source and are kept apart here.

Experiments:
[1] = system: neutrophil; assay: Pharmacodynamic response of neutrophil changes (ANC); parameters: species or system human; settings: in vivo
From the text: This characteristic of mavorixafor, allows for intrapatient patient dose escalation and since the steady-state ANC response is achieved rapidly as doses are escalated, the 28-day treatment duration cycle is intended to ensure that steady-state changes in ANC counts are achieved at each dose level, thereby avoiding any potential carry-over effects of previous doses. In addition, any DLT events are attributed to the current dose regardless of duration, making it unlikely that an unsafe dose is selected based on the algorithm.

[2] = molecular target: CXCR4 (Homo sapiens, UniProt P61073)
Procedure: Dose selection for the planned Phase 1b study is based on available safety data and PD of CXCR4 inhibition. […] An intrapatient dose escalation scheme is used in this study: patients will have a dose escalation in 200-mg increments to a maximum dose of 600 mg QD with the objective of achieving maximum white blood cell (WBC) mobilization.

[3] = Phase 1/2 study in renal cell carcinoma, dose-limiting toxicities; type: in vivo, human
Procedure: Doses of mavorixafor up to 600 mg daily have been tested in other clinical trials. During a Phase 1/2 study in renal cell carcinoma, a 3-patient cohort received monotherapy with 600 mg mavorixafor with 2 DLTs reported. On review, one of these (hyperglycemia) occurred in a patient with undiagnosed diabetes mellitus and the other (acute kidney injury [AKI]) occurred in a patient with pre-existing renal dysfunction and other complicating factors. Six patients received the 600 mg mavorixafor dose together with axitinib. […] Patients with a high hemoglobin A1c (HbA1c) level or with renal dysfunction are excluded from this study for safety reasons.

[4] = Solubility of X4P-001; type: physicochemical
[5] = Terminal half-life of X4P-001; settings: in vivo
[6] = Food effect on absorption
[7] = system: Waldenstrom's Macroglobulinemia; settings: previously treated WM patients, cited from earlier work
[8] = system: Waldenstrom's Macroglobulinemia; settings: cited from earlier work
[9] = system: Waldenstrom's Macroglobulinemia; settings: treatment-naive WM patients, cited from earlier work
[10] = system: WBC count; settings: similar across neutrophils, monocytes, lymphocytes including B cells; cited from earlier work
[11] = system: CD19 B cells; settings: patients with WHIM who had mutations in CXCR4; cited from earlier work

Sequence of CXCR4 (P61073 whole entry): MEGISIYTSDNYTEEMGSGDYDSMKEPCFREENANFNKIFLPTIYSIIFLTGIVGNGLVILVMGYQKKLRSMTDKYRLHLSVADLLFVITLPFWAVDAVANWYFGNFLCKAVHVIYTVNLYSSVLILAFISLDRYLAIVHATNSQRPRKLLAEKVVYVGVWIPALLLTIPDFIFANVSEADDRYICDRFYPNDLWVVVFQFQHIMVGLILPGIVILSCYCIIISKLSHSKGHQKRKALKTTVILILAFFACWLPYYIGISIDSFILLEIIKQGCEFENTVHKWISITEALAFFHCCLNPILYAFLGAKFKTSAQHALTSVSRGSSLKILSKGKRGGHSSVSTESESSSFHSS

Question: For `NCCCCN(Cc1nc2ccccc2[nH]1)[C@H]1CCCc2cccnc21` [X4P-001], which “pharmacodynamic response of neutrophil changes” value [1] is on record?
Answer: Its value is “rapid, occurring within hours to days”.

Question: And the “pharmacological activity of the dose” value ([2]; 200 mg starting dose, prior clinical trials)?
Answer: The value was “pharmacologically active”.

Question: What about the “tolerability of the dose” value ([2]; human, in vivo) of the same molecule?
Answer: Its value is “well-tolerated”.

Question: What about the DLTs reported ([3]; 600 mg monotherapy, 3-patient cohort) of the same molecule?
Answer: Its DLTs reported is 2.

Question: And the “patients reporting DLTs” value ([3]; 600 mg together with axitinib, six patients)?
Answer: Its value is “Two of these patients reported DLTs”.

Question: And the solubility ([4]; aqueous buffer, pH range 3.0 to 8.0, read-out: Solubility)?
Answer: The solubility was > 100 mg/mL.

Question: What about the solubility ([4]; in water) of the same molecule?
Answer: The solubility was “only slightly soluble”.

Question: What about the half-life [5] of the same molecule?
Answer: The half-life was 12 to 24 h.

Question: Which “absorption when taken with food” value [6] does the source give for `C=CC(=O)N1CCC[C@@H](n2nc(-c3ccc(Oc4ccccc4)cc3)c3c(N)ncnc32)C1` [ibrutinib, 1-[(3R)-3-[4-amino-3-(4-phenoxyphenyl)-1Hpyrazolo[3,4-d]pyrimidin-1-yl]-1-piperidinyl]-2-propen-1-one] here?
Answer: The value was “increased”.

Question: What about the “MR (major response)” value ([7]; All Patients) of the same molecule?
Answer: Its value is 78%.

Question: What about the “VGPR (very good partial response)” value ([7]; All Patients) of the same molecule?
Answer: The value was 29%.

Question: And the “MR (major response)” value ([7]; MYD88^L265P CXCR4^WHIM)?
Answer: The value was 67%.

Question: And the “VGPR (very good partial response)” value ([7]; MYD88^L265P CXCR4^WHIM)?
Answer: The value was 10%.

Question: And the “MR (major response)” value ([7]; MYD88^L265P CXCR4^WT)?
Answer: The value was 97%.

Question: What about the “VGPR (very good partial response)” value ([7]; MYD88^L265P CXCR4^WT) of the same molecule?
Answer: The value was 44%.

Question: And the VGPR ([8]; patients with the MYD88^L265P CXCR4^WT mutations)?
Answer: Its VGPR is 44.4%.

Question: And the VGPR ([8]; patients with the double mutations MYD88^L265P CXCR4^WHIM)?
Answer: The VGPR was 9.5%.

Question: What about the “MR (major response)” value ([9]; All Patients) of the same molecule?
Answer: Its value is 83%.

Question: What about the “VGPR (very good partial response)” value ([9]; All Patients) of the same molecule?
Answer: The value was 20%.

Question: And the “MR (major response)” value ([9]; MYD88^L265P CXCR4^WHIM)?
Answer: The value was 71%.

Question: What about the “VGPR (very good partial response)” value ([9]; MYD88^L265P CXCR4^WHIM) of the same molecule?
Answer: The value was 7%.

Question: And the “MR (major response)” value ([9]; MYD88^L265P CXCR4^WT)?
Answer: Its value is 94%.

Question: And the “VGPR (very good partial response)” value ([9]; MYD88^L265P CXCR4^WT)?
Answer: Its value is 31%.

Question: With `c1cc(CN2CCCNCCNCCCNCC2)ccc1CN1CCCNCCNCCCNCC1` [plerixafor] as the molecule, how does the “maximum fold-increase in WBCs over baseline” value [10] read?
Answer: Its value is 3 fold.

Question: What about the “fold increase in CD19 B cells” value [11] of the same molecule?
Answer: The value was “greater than 40 fold”.
